Laboratory results as given in patent US4806538A, “Piperazine compound as PAF-antagonist” (Fujisawa Pharmaceutical Co., Ltd., priority 1984, dated 1989).
≈ marks a conversion by molar mass, not a printed value.

What was measured:
[1] = test system: Platelet aggregation induced with PAF; test: Test 1: inhibition of PAF-induced platelet aggregation in platelet rich plasma; type: cell-based, Japanese white rabbit; conditions: Oryctolagus cuniculus, rabbit PRP, 5×10^5 cells/mm^3, final concentration of PAF usually 20 nM
Procedure: (Inhibition of platelet aggregation)
Blood was collected through the polyethylene catheter introduced into the carotid artery of male Japanese white rabbit (2.5 to 3 kg body weight). The blood was anticoagulated with 1 volume of 3.8% sodium citrate to 9 volume of blood. Platelet rich plasma (PRP) was prepared by centrifugation of the blood at 150 g for 10 minutes at room temperature. The PRP was diluted with platelet poor plasma obtained by further centrifugation of the blood at 1,000 g for 20 minutes. The platelet number was 5×10^5 cells/mm^3. Platelet aggregation induced with PAF was measured by the nephelometric technique of Born and Cross [cf. Journal of Physiology 168, 178-188 (1963)] using HKK Hema tracer (trade name, made by Niko Bioscience Inc.).
Activities of inhibitors were expressed as IC50 value, i.e. concentrations required to inhibit the platelet aggregation response by 50%. The final concentration of PAF was usually 20 nM.

[2] = test system: vascular permeability increase induced by intradermally injected PAF; test: Test 4: inhibition of vascular permeability increase induced by intradermally injected PAF in mice (test compound orally); type: in vivo, ddY mice; conditions: 100 mg/kg orally, 30 minutes before Evans blue; PAF 50 ng intradermally; 30 minutes after PAF
Procedure: (§1) (Inhibition of vascular permeability increase induced by intradermally injected PAF in mice)
Five-week old male ddY mice were used. The test compound suspended in 0.5 methylcellulose suspension was administered orally 30 minutes before the Evans blue injection (0.125% solution in saline, 10 ml/kg, i.v.).
PAF (50 ng, 50 μl per site) was injected intradermally to the depilated back of the mice 5 minutes after the Evans blue injection.
(§2) The inhibitory activity of the test compound was monitored 30 minutes after the PAF injection by assessment of blueing reaction with Evans blue dye in mice skin.

[3] = test system: synthetic PAF induced hypotension; test: Test 2: inhibition of hypotensive effect induced by intravenously injected PAF in rats; type: in vivo, Sprague-Dowley rats; conditions: 3 minutes before PAF (1 μg/kg i.v.), anesthetized rats
Procedure: (Inhibition of hypotensive effect induced by intraveneously injected PAF in rats)
Seven-week old Sprague-Dowley rats were anesthetized with urethane (1 g/kg, i. p.). Catheters were introduced into the femoral artery and vein for the measurement of arterial pressure and the administration of the test compound, respectively. Blood pressure was recorded from femoral artery using a transducer coupled to the Biophysiograph 180 System (San-Ei Instrument Co., Ltd.). Inhibitory activity of the test compound was shown in the following Table as the inhibition percentage of the synthetic PAF induced hypotension. PAF was administered intravenously at a dose of 1 μg/kg. The test compound was administered intravenously 3 minutes before PAF injection.

[4] = test system: vascular permeability increase induced by intradermally injected PAF; test: Test 3: inhibition of vascular permeability increase induced by intradermally injected PAF in mice (test compound i.p.); type: in vivo, ddY mice; conditions: 10 mg/kg i.p., 15 minutes before Evans blue; PAF 50 ng intradermally; 30 minutes after PAF
Procedure: as §1
Six-week old male ddY mice were used. The test compound was administered intraperitoneally 15 minutes before the Evans blue injection (0.125% solution in saline, 0.2 ml/mouse, i.v.).
PAF (50 ng, 50 μl per size) was injected intradermally to the depilated back of the mice 5 minutes after the Evans blue injection.
as §2

SMILES	IC50 [1] [µg/mL]	other results
CSCCCC1NC(=O)[C@@H](Cc2cn(C)c3ccccc23)NC1=O (single isomer, unassigned) [Test compound 5]	0.55 (≈ 1.59 µM)	
CSCC[C@H]1NC(=O)[C@@H](Cc2cn(C)c3ccccc23)NC1=O [Example 1, (3R,6R)-3-(1-methylindol-3-ylmethyl)-6-(2-methylthioethyl)piperazine-2,5-dione]	0.71 (≈ 2.14 µM)	
CSCC[C@@H]1C(=O)N(C)[C@H](Cc2cn(C)c3ccccc23)C(=O)N1C [Example 4, (3R,6R)-1,4-dimethyl-3-(1-methylindol-3-ylmethyl)-6-(2-methylthioethyl)piperazine-2,5-dione]	0.84 (≈ 2.34 µM)	
C[C@H](c1cn(C)c2ccccc12)[C@H]1NC(=O)[C@@H](Cc2ccccn2)NC1=O [Example 18, (3R,6R)-3-[(R)-1-(1-methylindol-3-yl)ethyl]-6-(2-pyridylmethyl)piperazine-2,5-dione]	0.16 (≈ 0.441 µM)	Inhibition of vascular permeability increase (%) [2]: 56.7%
CC(C)C[C@H]1NC(=O)[C@@H](Cc2cn(C)c3ccccc23)NC1=O [Test compound 2]	1.04 (≈ 3.32 µM)	Inhibition maximum (%) of hypotensive effect ([3]; 10 mg/kg i.v.): 75%; Inhibition of vascular permeability increase (%) [4]: 30%
Cn1cc(C[C@H]2NC(=O)[C@@H](Cc3cn(C)c4ccccc34)NC2=O)c2ccccc21 [Test compound 7]	1.2 (≈ 3 µM)	
CCCC[C@H]1NC(=O)[C@@H](Cc2cn(C)c3ccccc23)NC1=O [Test compound 8]	0.58 (≈ 1.85 µM)	
CSCC[C@H]1NC(=O)[C@@H]([C@H](C)c2cccc3ccccc23)NC1=O [Test compound 9]	0.061 (≈ 0.178 µM)	Inhibition maximum (%) of hypotensive effect ([3]; 3 mg/kg i.v.): 51%; Inhibition of vascular permeability increase (%) [4]: 40%
CSCC[C@H]1NC(=O)[C@@H](Cc2cccc3ccccc23)NC1=O [Test compound 10]	0.48 (≈ 1.46 µM)	
CSCC[C@H]1NC(=O)[C@@H](Cc2c3ccccc3cc3ccccc23)NC1=O [Test compound 11]	0.58 (≈ 1.53 µM)	
CSCC[C@H]1NC(=O)[C@@H]([C@@H](C)c2cccc3ccccc23)NC1=O [Test compound 12]	0.65 (≈ 1.9 µM)	
CSCC[C@H]1NC(=O)[C@@H](Cc2c(-c3ccccc3)n(C)c3ccccc23)NC1=O [Test compound 13]	0.72 (≈ 1.77 µM)	
CCC[C@H]1NC(=O)[C@@H](Cc2cn(C)c3ccccc23)NC1=O [Test compound 14]	0.93 (≈ 3.11 µM)	
CSCC[C@@H]1C(=O)N(C)[C@H]([C@H](C)c2cccc3ccccc23)C(=O)N1C [Test compound 16]	0.59 (≈ 1.59 µM)	
